# Results reported in patent publication US20240217947A1, “Morpholinylquinazoline Compound, Pharmaceutical compositions thereof and Use Thereof” (SHANGHAI YINGLI PHARMACEUTICAL CO., LTD, priority 2022, published 2024).
# Key:
# Type in all cases: biochemical
# PI3Kα = PI3Kα (Homo sapiens, UniProt P42336); test: PI3Kα enzyme activity inhibition IC50 evaluation assay (ADP-Glo Kinase Assay); details: ATP 25 μM, PIP2 50 μg/mL, 1 hour room temperature, read-out: PI3K-α IC50
# Description: (§1) Effec Example 1 IC50 evaluation assay for PI3Kα, PI3Kδ, PI3Kβ and PI3Kγ enzyme activity inhibition
# (§2) The experiment was performed using the ADP-Glo Kinase Assay kit, following the instructions. The following buffer solutions were prepared: 50 mM HEPES, pH 7.5, 3 mM MgCl2, 1 mM EGTA, 100 mM NaCl, 0.03% CHAPS, 2 mM DTT. The test compound samples were dissolved in DMSO and added to the screening system at a certain starting concentration such as 10 μM, 3-fold dilution, while setting up both DMSO control and no kinase control. The optimal concentrations of PI3Kα, PI3Kδ, PI3Kβ and PI3Kγ enzymes, substrate (PIP2) and ATP were prepared in buffer. The enzyme reaction system included: buffer, ATP 25 μM, kinase substrate (PIP2, 50 μg/mL), kinases [PI3Kα (0.15 μg/mL), PI3Kδ (1.2 μg/mL), PI3Kβ (0.3 μg/mL) and PI3Kγ (2.5 μg/mL)], etc. The reaction system was reacted at room temperature for 1 hour. The reaction was terminated by adding a termination reagent (ADP-Glo reagent, 5 μL), and the ADP content in the system was detected using a detection reagent (Kinase Detection Reagent, 10 μL). Signal data were collected using the Envision instrument. Calculate the percentage of (%) inhibition according to the following formula: % inhibition=(DMSO control signal value−sample signal value)/(DMSO control signal value−no-kinase control signal value). The IC50 value was obtained by fitting the curve using the formula Y=Bottom+(Top-Bottom)/(1+(IC50/X)^HillSlope).
# PI3Kδ = PI3Kδ (Homo sapiens, UniProt O00329); test: PI3Kδ enzyme activity inhibition IC50 evaluation assay (ADP-Glo Kinase Assay); details: ATP 25 μM, PIP2 50 μg/mL, 1 hour room temperature, read-out: PI3K-δ IC50
# Chain of PI3Kδ (O00329 whole entry, species assumed): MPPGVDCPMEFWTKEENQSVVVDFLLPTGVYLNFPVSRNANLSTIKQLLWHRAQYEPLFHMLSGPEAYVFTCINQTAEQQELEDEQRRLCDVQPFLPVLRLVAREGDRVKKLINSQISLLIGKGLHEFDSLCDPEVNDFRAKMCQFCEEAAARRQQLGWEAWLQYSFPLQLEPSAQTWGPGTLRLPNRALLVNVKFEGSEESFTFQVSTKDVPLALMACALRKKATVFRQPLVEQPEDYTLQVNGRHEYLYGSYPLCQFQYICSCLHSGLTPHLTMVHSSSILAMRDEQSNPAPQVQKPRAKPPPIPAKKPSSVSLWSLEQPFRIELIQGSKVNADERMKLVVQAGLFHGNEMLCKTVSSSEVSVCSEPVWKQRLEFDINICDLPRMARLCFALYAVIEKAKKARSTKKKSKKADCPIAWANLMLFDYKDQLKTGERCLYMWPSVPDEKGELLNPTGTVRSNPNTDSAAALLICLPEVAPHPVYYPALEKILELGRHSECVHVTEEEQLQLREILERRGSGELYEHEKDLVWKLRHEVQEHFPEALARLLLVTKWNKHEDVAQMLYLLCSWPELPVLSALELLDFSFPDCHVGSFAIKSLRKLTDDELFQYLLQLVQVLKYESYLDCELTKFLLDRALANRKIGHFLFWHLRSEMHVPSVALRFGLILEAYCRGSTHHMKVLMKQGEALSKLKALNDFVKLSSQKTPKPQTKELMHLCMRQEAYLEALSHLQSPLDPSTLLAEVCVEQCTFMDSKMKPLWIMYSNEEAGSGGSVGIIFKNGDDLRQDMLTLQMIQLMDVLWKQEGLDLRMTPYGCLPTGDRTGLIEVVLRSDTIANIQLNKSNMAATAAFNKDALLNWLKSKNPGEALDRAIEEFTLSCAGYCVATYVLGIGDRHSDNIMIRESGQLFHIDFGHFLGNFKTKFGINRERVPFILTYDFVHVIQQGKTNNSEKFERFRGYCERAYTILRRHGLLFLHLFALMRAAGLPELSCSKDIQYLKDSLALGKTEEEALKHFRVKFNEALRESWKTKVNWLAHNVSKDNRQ
# Chain of PI3Kδ (P27986 whole entry partner, species assumed): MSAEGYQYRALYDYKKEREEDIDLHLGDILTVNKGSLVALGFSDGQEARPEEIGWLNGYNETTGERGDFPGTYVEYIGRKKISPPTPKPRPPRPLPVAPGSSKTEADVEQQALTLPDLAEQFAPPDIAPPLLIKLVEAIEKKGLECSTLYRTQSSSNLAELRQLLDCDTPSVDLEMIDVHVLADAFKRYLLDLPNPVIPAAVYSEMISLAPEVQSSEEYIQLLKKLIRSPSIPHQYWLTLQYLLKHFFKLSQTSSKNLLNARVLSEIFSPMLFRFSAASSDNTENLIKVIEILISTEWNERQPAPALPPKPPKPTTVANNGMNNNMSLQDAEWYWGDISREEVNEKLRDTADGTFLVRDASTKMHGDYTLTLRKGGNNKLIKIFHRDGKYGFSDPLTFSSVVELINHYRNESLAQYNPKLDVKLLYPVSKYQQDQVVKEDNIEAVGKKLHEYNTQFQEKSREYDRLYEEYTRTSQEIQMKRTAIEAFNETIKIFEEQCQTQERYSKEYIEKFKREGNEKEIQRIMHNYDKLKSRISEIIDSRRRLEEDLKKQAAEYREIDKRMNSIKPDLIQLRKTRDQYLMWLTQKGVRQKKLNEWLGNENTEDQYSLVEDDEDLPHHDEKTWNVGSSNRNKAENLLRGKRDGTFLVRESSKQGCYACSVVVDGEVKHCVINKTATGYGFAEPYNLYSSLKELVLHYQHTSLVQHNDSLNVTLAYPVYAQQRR
# Description: as §1, §2
# HDAC6 = molecular target: T1, HDAC6 (Homo sapiens, UniProt Q9UBN7); test: HDAC6 enzyme activity inhibition IC50 evaluation experiment; details: HDAC6 5 nM, acetylated peptide 11 μM, trypsin, fluorescence
# T1 sequence (Q9UBN7 1-1215): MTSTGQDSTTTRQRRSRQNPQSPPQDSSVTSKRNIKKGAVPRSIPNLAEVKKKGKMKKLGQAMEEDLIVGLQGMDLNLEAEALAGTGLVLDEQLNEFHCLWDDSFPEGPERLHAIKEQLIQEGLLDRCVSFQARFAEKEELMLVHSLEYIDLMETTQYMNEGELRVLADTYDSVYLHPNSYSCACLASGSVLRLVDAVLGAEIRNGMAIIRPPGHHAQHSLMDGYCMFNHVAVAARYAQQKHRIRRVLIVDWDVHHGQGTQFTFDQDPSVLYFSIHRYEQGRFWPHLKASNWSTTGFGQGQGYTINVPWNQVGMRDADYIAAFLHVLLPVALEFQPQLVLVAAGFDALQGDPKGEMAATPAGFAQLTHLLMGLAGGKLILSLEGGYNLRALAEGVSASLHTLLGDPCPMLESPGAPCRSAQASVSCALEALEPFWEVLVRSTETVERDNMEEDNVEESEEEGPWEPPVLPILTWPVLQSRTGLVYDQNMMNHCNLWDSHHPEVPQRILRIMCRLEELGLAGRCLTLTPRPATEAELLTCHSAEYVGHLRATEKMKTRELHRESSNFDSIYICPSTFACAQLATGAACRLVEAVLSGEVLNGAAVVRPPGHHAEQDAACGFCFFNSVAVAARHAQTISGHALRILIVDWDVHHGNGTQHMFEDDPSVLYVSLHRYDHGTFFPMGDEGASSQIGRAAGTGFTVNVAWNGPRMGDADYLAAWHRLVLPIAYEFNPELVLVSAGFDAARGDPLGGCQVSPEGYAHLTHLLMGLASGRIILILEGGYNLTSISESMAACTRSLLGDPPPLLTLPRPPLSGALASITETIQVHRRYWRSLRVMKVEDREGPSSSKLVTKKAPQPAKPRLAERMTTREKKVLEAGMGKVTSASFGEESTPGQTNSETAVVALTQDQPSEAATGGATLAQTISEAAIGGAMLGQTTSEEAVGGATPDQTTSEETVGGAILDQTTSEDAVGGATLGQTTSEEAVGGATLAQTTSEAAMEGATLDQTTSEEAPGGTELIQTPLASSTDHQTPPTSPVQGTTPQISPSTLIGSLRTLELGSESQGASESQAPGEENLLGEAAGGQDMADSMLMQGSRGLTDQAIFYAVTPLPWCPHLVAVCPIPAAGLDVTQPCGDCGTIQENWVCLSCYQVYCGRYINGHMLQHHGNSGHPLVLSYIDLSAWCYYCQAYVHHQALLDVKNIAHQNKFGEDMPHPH
# Description: Effect Example 2 HDAC1, HDAC2, HDAC3, HDAC6 enzyme activity inhibition IC50 evaluation experiment
# Buffer solution (50 mM Tris 7.5, 0.01% Tween-20, 50 mM NaCl) was prepared according to the kit instructions, and the enzyme solution and substrate solution (acetylated peptide with the addition of trypsin) were prepared using the buffer solution. The test compound samples were dissolved with DMSO and added to the screening system at a certain starting concentration such as 10 μM, 3-fold dilution, while setting up a DMSO control and no-enzyme control. The enzyme reaction system includes: buffer, enzyme [final concentration: HDAC1=10 nM, HDAC2=4 nM, HDAC3=7 nM, HDAC6=5 nM], substrate (acetylated peptide) [final concentration: Peptide(HDAC1)=8 μM, Peptide(HDAC2)=10 μM, Peptide(HDAC3)=5 μM, Peptide(HDAC6)=11 μM], trypsin [final concentration: Trypsin(HDAC1,2,3)=0.05 μM, Trypsin(HDAC6)=0.1 μM], etc. The enzymes and compounds were reacted at room temperature for 15 min. After adding the substrate and Trypsin, centrifugation was performed for 1 min, and the fluorescence signal data (excitation wavelength 355 nM/emission wavelength 460 nm) was read continuously for 60 min using Envision, and the linear reaction segment was selected to obtain the slope and thus calculate the inhibition rate at that concentration. The IC50 value was obtained by fitting the curve using the formula Y=Bottom+(Top-Bottom)/(1+(IC50/X)^HillSlope).
# Chain of PI3Kα (P42336 whole entry, species assumed): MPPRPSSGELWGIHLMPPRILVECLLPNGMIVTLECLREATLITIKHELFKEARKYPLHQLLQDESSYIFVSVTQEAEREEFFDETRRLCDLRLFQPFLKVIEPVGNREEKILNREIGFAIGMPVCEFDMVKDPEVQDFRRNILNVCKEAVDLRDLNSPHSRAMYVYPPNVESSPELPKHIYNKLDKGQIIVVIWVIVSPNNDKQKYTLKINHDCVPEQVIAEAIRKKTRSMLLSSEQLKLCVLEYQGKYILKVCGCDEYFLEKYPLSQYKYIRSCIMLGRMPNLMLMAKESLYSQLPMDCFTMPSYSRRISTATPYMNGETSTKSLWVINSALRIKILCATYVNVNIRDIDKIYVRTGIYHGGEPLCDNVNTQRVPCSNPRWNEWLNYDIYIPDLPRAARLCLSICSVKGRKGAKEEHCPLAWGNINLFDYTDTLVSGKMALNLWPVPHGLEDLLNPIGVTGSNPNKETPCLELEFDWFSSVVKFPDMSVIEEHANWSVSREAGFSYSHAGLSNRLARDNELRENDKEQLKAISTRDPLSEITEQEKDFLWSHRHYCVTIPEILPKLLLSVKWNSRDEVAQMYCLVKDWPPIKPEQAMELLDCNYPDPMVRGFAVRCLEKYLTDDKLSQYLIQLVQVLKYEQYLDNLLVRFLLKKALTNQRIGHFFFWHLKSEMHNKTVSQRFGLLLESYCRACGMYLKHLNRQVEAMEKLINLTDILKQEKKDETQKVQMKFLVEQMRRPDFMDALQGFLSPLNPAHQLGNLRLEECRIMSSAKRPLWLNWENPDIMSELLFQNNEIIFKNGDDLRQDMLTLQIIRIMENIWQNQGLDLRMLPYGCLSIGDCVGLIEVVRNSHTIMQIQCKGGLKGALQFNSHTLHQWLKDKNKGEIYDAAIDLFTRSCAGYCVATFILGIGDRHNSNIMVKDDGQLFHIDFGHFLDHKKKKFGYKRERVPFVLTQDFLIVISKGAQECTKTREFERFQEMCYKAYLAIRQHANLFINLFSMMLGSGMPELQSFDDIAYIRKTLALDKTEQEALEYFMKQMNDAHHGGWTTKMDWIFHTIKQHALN
# Chain of PI3Kα (P27986 whole entry partner, species assumed): as the sequence (P27986 whole entry partner, species assumed) above
IC50 (PI3Kα),IC50 (PI3Kδ),IC50 (HDAC6),Compound
1000 to 10000 nM,10 to 100 nM,1000 to 10000 nM,COc1ncc(-c2nc(N3CCOCC3)nc3c(CN4CCC(C(=O)NO)CC4)cc(F)cc23)cc1NS(C)(=O)=O [Compound 1]
–,≤ 10 nM,100 to 1000 nM,COc1ncc(-c2nc(N3CCOCC3)nc3c(CN4CCC(/C=C/C(=O)NO)CC4)cc(F)cc23)cc1NS(C)(=O)=O [Compound 5]
–,≤ 10 nM,100 to 1000 nM,COc1ncc(-c2nc(N3CCOCC3)nc3c(CN4CCN(CCCCC(=O)NO)CC4)cc(F)cc23)cc1NS(C)(=O)=O [Compound 6]
100 to 1000 nM,10 to 100 nM,≤ 10 nM,COc1ncc(-c2nc(N3CCOCC3)nc3c(OCCCCCC(=O)NO)cc(F)cc23)cc1NS(C)(=O)=O [Compound 8]
100 to 1000 nM,≤ 10 nM,10 to 100 nM,COc1ncc(-c2nc(N3CCOCC3)nc3c(CN4CCN(Cc5ccc(C(=O)NO)cc5)CC4)cc(F)cc23)cc1NS(C)(=O)=O [Compound 10]
1000 to 10000 nM,≤ 10 nM,100 to 1000 nM,COc1ncc(-c2nc(N3CCOCC3)nc3c(CN4CCC(OCCC(=O)NO)CC4)cc(F)cc23)cc1NS(C)(=O)=O [Compound 11]
100 to 1000 nM,≤ 10 nM,100 to 1000 nM,COc1ncc(-c2nc(N3CCOCC3)nc3c(CN4CCN(Cc5ncc(C(=O)NO)cn5)CC4)cc(F)cc23)cc1NS(C)(=O)=O [Compound 12]
1000 to 10000 nM,≤ 10 nM,100 to 1000 nM,COc1ncc(-c2nc(N3CCOCC3)nc3c(CN4CCC(OCCCC(=O)NO)CC4)cc(F)cc23)cc1NS(C)(=O)=O [Compound 13]
1000 to 10000 nM,10 to 100 nM,1000 to 10000 nM,COc1ncc(-c2nc(N3CCOCC3)nc3c(CN4CCC(N5CCC(C(=O)NO)CC5)CC4)cc(F)cc23)cc1NS(C)(=O)=O [Compound 14]
100 to 1000 nM,≤ 10 nM,100 to 1000 nM,COc1ncc(-c2nc(N3CCOCC3)nc3c(CN4CCC(CCCCC(=O)NO)CC4)cc(F)cc23)cc1NS(C)(=O)=O [Compound 15]
100 to 1000 nM,10 to 100 nM,1000 to 10000 nM,COc1ncc(-c2nc(N3CCOCC3)nc3c(CN4CC(OCCOCC(=O)NO)C4)cc(F)cc23)cc1NS(C)(=O)=O [Compound 16]
1000 to 10000 nM,≤ 10 nM,10 to 100 nM,COc1ncc(-c2nc(N3CCOCC3)nc3c(CN4CCC(c5ccc(C(=O)NO)cc5F)CC4)cc(F)cc23)cc1NS(C)(=O)=O [Compound 17]
1000 to 10000 nM,≤ 10 nM,100 to 1000 nM,COc1ncc(-c2nc(N3CCOCC3)nc3c(CN4CCC(c5ccc(C(=O)NO)c(F)c5)CC4)cc(F)cc23)cc1NS(C)(=O)=O [Compound 18]
1000 to 10000 nM,≤ 10 nM,100 to 1000 nM,COc1ncc(-c2nc(N3CCOCC3)nc3c(CN4CCC(c5c(F)cc(C(=O)NO)cc5F)CC4)cc(F)cc23)cc1NS(C)(=O)=O [Compound 19]
1000 to 10000 nM,≤ 10 nM,100 to 1000 nM,COc1ncc(-c2nc(N3CCOCC3)nc3c(CN4CCC(c5cc(F)c(C(=O)NO)cc5F)CC4)cc(F)cc23)cc1NS(C)(=O)=O [Compound 20]
100 to 1000 nM,≤ 10 nM,1000 to 10000 nM,COc1ncc(-c2nc(N3CCOCC3)nc3c(CN4CCC(C(C)(C)OCC(=O)NO)CC4)cc(F)cc23)cc1NS(C)(=O)=O [Compound 22]
100 to 1000 nM,≤ 10 nM,10 to 100 nM,COc1ncc(-c2nc(N3CCOCC3)nc3c(CN4CCC(c5ccc(C(=O)NO)cc5)CC4)cc(F)cc23)cc1NS(C)(=O)=O [Compound 23]
1000 to 10000 nM,10 to 100 nM,10 to 100 nM,CS(=O)(=O)Nc1cncc(-c2nc(N3CCOCC3)nc3c(CN4CCC(CCCC(=O)NO)CC4)cc(F)cc23)c1 [Compound 24]
1000 to 10000 nM,10 to 100 nM,10 to 100 nM,COc1ncc(-c2nc(N3CCOCC3)nc3c(CN4CCC(CCCC(=O)NO)CC4)cc(F)cc23)cc1NS(=O)(=O)C1CC1 [Compound 25]
100 to 1000 nM,≤ 10 nM,10 to 100 nM,COc1ncc(-c2nc(N3CCOCC3)nc3c(CN4CCC(CCCC(=O)NO)CC4)cc(F)cc23)cc1NS(=O)(=O)C(F)(F)F [Compound 26]
1000 to 10000 nM,10 to 100 nM,–,O=C(CCCC1CCN(Cc2cc(F)cc3c(-c4cncc(NS(=O)(=O)C5CC5)c4)nc(N4CCOCC4)nc23)CC1)NO [Compound 27]
100 to 1000 nM,≤ 10 nM,> 10000 nM,COc1ncc(-c2nc(N3CCOCC3)nc3c(CN4CCC(CCNC(=O)NO)CC4)cc(F)cc23)cc1NS(C)(=O)=O [Compound 28]
100 to 1000 nM,≤ 10 nM,–,COc1ncc(-c2nc(N3CCOCC3)nc3c(CN4CCC(c5ccc(C(=O)NO)cc5F)CC4)cc(F)cc23)cc1NS(=O)(=O)C(F)(F)F [Compound 29]
–,10 to 100 nM,10 to 100 nM,COc1ncc(-c2nc(N3CCOCC3)nc3c(OC4CCN(c5ccc(C(=O)NO)cc5F)CC4)cc(F)cc23)cc1NS(C)(=O)=O [Compound 31]
–,≤ 10 nM,1000 to 10000 nM,COc1ncc(-c2nc(N3CCOCC3)nc3c(O[C@H]4CC[C@H](N5CCC(C(=O)NO)CC5)CC4)cc(F)cc23)cc1NS(C)(=O)=O [Compound 32]
–,10 to 100 nM,10 to 100 nM,COc1ncc(-c2nc(N3CCOCC3)nc3c(OC4CCN(Cc5ccc(C(=O)NO)cc5F)CC4)cc(F)cc23)cc1NS(C)(=O)=O [Compound 33]
–,10 to 100 nM,10 to 100 nM,COc1ncc(-c2nc(N3CCOCC3)nc3c(CN4CCN(c5ccc(C(=O)NO)cc5F)CC4)cc(F)cc23)cc1NS(C)(=O)=O [Compound 34]
–,100 to 1000 nM,–,COc1ncc(-c2nc(N3CCOCC3)nc3c(OCCc4ccc(C(=O)NO)cc4F)cc(F)cc23)cc1NS(C)(=O)=O [Compound 37]
–,10 to 100 nM,–,COc1ncc(-c2nc(N3CCOCC3)nc3c(OCc4ccc(C(=O)NO)cc4F)cc(F)cc23)cc1NS(C)(=O)=O [Compound 38]
